The numbers were not newly measured in patent publication US20080003219A1, “DELIVERY OF AN OCULAR AGENT” (MINU, L.L.C., priority 2005, published 2008), which cites them from elsewhere.

The test system of series [1] is chronic myeloid leukemia (CML). The settings on record: CML patients who initially respond.
The test system of series [2] is neovascular age-related macular degeneration. The settings on record: 1 mg single intravitreal injection.
In series [3] the test system is choroidal neovascularization. The following applies: intravitreal injection in combination with verteporfin PDT, compared with PDT only.

Consider `Cc1ccc(NC(=O)c2ccc(CN3CCN(C)CC3)cc2)cc1Nc1nccc(-c2cccnc2)n1` [imatinib], for which the “initially responding CML patients who subsequently develop drug resistance” value in series [1] is “about 10%”.

Regarding bevacizumab, the observed inflammation entry in series [2] is given as “no observed inflammation”. Also, in series [2] (after one week), the subretinal fluid result is listed as “resolution of subretinal fluid after one week”. In addition, in series [2] (duration of improvement), the macular appearance entry is “improved macular appearance maintained for at least four weeks”.

B1: ranibizumab (antibody, chains of the INN, looked up, V domains shown)
VH: EVQLVESGGGLVQPGGSLRLSCAASGYDFTHYGMNWVRQAPGKGLEWVGWINTYTGEPTYAADFKRRFTFSLDTSKSTAYLQMNSLRAEDTAVYYCAKYPYYYGTSHWYFDVWGQGTLVTVSS
VL: DIQLTQSPSSLSASVGDRVTITCSASQDISNYLNWYQQKPGKAPKVLIYFTSSLHSGVPSRFSGSGSGTDFTLTISSLQPEDFATYYCQQYSTVPWTFGQGTKVEIK
modifications: Fab
For the molecule B1, in series [3], the “reduction in angiographic leakage” value was “greater reduction in angiographic leakage than PDT only”.
